These results are taken from patent US11351178B2, “Selective HDAC6 inhibitors” (ITALFARMACO S.P.A., priority 2017, dated 2022).

Like-named read-outs stand apart in the source and are kept apart here.

In series [1] the test system is B 697 promyelocytic cell line. Put plainly: Cytotoxicity on 697 cell line (CellTiter 96). Type of series: cell-based. Particulars: 72 hours incubation, read-out: 697 TOXICITY
A digest of the protocol:
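Cells seeded (2×10^4/well for 697, 5×10^5/well for PBMCs); compounds added after 24 h at 1–10000 nM (697) or 1.5–10000 nM (PBMCs) and incubated 72 h. Viability read by CellTiter 96 Aqueous One tetrazolium assay of mitochondrial function.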

A short description of series [2]: Stability in human plasma. In kind it is in vitro ADME. The settings on record: after 4 hours, 37° C. A digest of the protocol:
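Compounds incubated at 37° C in rat or human plasma at 50 μM (UV/HPLC) or 1 or 2 μM (LC-MS/MS) for 0–4 h. Reaction stopped with acidified acetonitrile on ice; percent remaining versus initial amount and plasma half-life calculated.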

The test system of another series is human PBMCs. Put plainly: Mixed Lymphocytes Reaction (MLR) with human PBMCs (IFN-γ, TNF-α, IL-6). In kind it is cell-based. The settings on record: PBMC, 144 h, two-way MLR, 6 days, negative = induction; for inhibition at […]: 0.25 μM. On the procedure:
In order to study HDAC6 inhibitors ability to inhibit the activation of allogenic T CD4+ cells, a Mixed Lymphocytes Reaction (MLR or mixed lymphocyte culture, CLM) assay was performed. This is a reaction involving blast transformation of in vitro cultured lymphocytes in the presence of allogeneic lymphocytes. There is the so-called “two-way” reaction wherein the two lymphocyte populations stimulate each other to proliferate, and the so-called “one way” reaction, wherein the proliferation of one of the two populations is inhibited by mitomycin C or irradiation, these cells provide proliferation stimulus (stimulator) to the so-called “responder” cells.
Human peripheral blood mononuclear cells (PBMCs) used in MLR were obtained by Ficoll gradient separation from Buffy Coat of healthy donors.
We used a two-way MLR. The cells from the two donors were plated at 1:1 ratio (allogenic stimulation) to the final concentration of 2×10^5 per well in U-bottom 96 well plates in RPMI 1640 medium with 10% FBS and antibiotics. As a control we individually plated the cells from each donor (singenic stimulus). The experiment for each inhibitor was set in deduplicate for allogeneic stimuli and in quintuplicate for singenic stimuli. The cells were cultured for 6 days in an incubator at 37° C.
After 6 days the effect of the test compounds was evaluated by measuring the production of pro-inflammatory cytokines recognized to be characteristics of this assay.
For this purpose, the culture supernatant was harvested and used for IFN-γ, TNF-α and IL-6 inflammatory cytokine assay.
The JAK inhibitor ruxolitinib was used as the active reference compound in the test.
Values in the table indicate the inhibition percentages. Negative values indicate an induction.

Another series concerns the target T1, HDAC10 (Homo sapiens, UniProt Q969S8).
T1 construct: purchased BPS 50010
T1 sequence (Q969S8 1-669): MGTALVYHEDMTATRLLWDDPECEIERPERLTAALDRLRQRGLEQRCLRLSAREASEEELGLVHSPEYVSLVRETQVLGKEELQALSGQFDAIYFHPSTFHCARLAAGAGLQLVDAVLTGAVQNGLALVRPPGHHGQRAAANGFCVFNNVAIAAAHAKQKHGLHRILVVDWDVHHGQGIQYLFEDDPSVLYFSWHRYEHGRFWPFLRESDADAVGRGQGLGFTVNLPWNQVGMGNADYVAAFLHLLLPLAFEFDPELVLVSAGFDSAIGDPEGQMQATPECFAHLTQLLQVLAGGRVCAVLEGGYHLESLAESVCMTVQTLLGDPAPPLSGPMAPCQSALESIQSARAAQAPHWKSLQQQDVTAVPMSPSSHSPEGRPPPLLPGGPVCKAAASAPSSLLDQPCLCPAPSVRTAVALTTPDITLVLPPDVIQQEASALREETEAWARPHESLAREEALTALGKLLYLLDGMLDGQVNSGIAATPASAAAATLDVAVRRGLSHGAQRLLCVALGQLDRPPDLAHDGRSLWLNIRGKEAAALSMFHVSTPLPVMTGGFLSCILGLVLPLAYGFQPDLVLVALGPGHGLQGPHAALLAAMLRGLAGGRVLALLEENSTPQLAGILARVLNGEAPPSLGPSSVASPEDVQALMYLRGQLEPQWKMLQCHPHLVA
Put plainly: Enzymatic test HDAC10. The settings on record: Table 3. Type of series: biochemical.

For the next series, the target named is T2, HDAC2 (Homo sapiens, UniProt Q92769).
T2 construct: purchased BPS 50002
Put plainly: Enzymatic test HDAC2. Type of series: biochemical. Particulars: Table 3.

Another series concerns the target T3, HDAC9 (Homo sapiens, UniProt Q9UKV0).
T3 construct: purchased BPS 50009
Put plainly: Enzymatic test HDAC9. In kind it is biochemical. Particulars: Table 3. The method, then:
(§1) After a period of incubation at 30° C. (incubation times vary for different isoforms and are shown in table 1) 25 μL of solution containing the substrate were added. As substrate, FLUOR DE LYS® deacetylase substrate (Enzo Life Sciences, cat #BML-K1104, FdL), FLUOR DE LYS®-Green substrate (Enzo Life Sciences, cat #BML-K1572 FdL_G) and trifluoroacetyl-L-lysine (Tfal)-2× concentrated solution in 25 mM Tris-HCl, pH 8, 130 mM NaCl 0.05% Tween-20 10% glycerol) were used. Following a reaction period at 30° C.

Another series has as its target T4, HDAC7 (Homo sapiens, UniProt Q8WUI4).
T4 construct: purchased BPS 50007
T4 sequence (Q8WUI4 518-952 limits assumed): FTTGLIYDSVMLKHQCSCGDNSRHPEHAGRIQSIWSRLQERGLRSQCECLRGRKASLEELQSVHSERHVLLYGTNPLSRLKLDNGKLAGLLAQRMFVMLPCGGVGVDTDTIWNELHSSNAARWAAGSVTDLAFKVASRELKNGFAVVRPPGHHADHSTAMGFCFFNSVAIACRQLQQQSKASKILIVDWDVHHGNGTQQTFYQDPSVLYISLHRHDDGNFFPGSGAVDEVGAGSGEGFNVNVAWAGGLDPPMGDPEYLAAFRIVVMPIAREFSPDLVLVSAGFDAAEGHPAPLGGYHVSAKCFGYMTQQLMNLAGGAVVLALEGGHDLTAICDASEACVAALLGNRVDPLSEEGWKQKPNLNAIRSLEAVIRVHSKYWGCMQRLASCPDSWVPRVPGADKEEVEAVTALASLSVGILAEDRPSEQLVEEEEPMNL
Put plainly: Enzymatic test HDAC7. In kind it is biochemical. The settings on record: Table 3. The method, then: as §1

The mark [3] stands for this setting: read-out: MLR IFN-γ inhibition percentage.
[4] abbreviates: read-out: MLR IL-6 inhibition percentage.
The mark [5] stands for this setting: read-out: MLR TNF-α inhibition percentage.

T3 sequence (Q9UKV0 1-1066 isoform Q9UKV0-5): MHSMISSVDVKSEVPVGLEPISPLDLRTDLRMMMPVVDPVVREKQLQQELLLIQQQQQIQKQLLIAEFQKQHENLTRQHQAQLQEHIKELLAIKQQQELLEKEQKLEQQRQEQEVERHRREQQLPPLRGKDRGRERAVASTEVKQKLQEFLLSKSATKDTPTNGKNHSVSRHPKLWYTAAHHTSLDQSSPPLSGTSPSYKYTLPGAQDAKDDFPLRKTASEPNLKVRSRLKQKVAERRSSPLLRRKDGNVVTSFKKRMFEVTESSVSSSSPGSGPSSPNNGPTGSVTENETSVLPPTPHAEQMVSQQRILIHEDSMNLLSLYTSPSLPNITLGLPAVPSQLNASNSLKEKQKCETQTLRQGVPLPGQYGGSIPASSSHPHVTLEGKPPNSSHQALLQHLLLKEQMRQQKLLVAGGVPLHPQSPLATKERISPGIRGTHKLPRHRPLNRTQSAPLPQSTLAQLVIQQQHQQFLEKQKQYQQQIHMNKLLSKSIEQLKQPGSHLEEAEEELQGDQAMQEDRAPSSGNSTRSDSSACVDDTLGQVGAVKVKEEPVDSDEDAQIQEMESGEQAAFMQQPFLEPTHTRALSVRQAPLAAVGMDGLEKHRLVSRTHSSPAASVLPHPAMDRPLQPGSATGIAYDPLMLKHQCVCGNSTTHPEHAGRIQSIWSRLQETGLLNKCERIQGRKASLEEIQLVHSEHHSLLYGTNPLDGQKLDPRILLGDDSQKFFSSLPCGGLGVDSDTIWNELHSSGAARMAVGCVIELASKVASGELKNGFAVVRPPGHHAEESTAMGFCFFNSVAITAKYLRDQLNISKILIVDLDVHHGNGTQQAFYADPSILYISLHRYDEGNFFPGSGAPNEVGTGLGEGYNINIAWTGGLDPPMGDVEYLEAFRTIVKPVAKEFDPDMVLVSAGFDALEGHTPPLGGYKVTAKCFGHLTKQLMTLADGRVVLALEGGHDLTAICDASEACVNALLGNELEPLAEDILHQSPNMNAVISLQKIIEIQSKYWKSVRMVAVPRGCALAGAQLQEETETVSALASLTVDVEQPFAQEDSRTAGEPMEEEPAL
T2 sequence (Q92769 whole entry): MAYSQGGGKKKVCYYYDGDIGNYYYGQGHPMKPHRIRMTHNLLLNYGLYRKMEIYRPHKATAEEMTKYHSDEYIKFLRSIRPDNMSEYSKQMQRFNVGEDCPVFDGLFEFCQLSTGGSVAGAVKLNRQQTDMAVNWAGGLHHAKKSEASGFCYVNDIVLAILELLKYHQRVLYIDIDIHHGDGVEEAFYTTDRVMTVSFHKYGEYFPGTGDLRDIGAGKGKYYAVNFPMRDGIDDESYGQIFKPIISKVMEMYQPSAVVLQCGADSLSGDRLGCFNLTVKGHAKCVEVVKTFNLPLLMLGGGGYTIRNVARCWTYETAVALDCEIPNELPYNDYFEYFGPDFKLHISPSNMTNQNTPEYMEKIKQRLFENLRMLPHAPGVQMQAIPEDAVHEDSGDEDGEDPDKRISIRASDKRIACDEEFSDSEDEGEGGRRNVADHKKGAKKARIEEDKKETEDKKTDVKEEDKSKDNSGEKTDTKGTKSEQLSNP

Take `O=C(NO)c1ccc(Cn2nnnc2-c2cccs2)cc1` [comp. 8, N-hydroxy-4-((5-(thiophen-2-yl)-1H-tetrazol-1-yl)methyl)benzamide]: in series [1], the IC50 worked out at 8.88 µM. The “residual percentage in human plasma” value in series [2] is listed as 91%. For the same molecule, in the series with human PBMCs (setting [3]), the inhibition – broadly, the drop in the measured response relative to a control, in per cent – at […] amounted to 24.1%; the inhibition at 0.5 µM was found to be 35.3%; the inhibition at 1 µM is 15.7%. For the same molecule, in the series on human PBMCs (setting [4]), the inhibition at […] was -33.1%, the inhibition at 0.5 µM is -13% and the inhibition at 1 µM was -1.5%. For the same molecule, in the series with human PBMCs (setting [5]), the inhibition at […] worked out at 54.7%, the inhibition at 0.5 µM worked out at 35.1% and the inhibition at 1 µM amounted to 28.1%.

`O=C(NO)c1cc(F)c(Cn2nnnc2-c2cccs2)c(F)c1` [comp. 15, 3,5-difluoro-N-hydroxy-4-((5-(thiophen-2-yl)-1H-tetrazol-1-yl)methyl)benzamide]: the IC50 against HDAC10 stood at 8630 nM; against HDAC2, 8800 nM; in series [1], 8.72 µM; at HDAC9, 659 nM. Besides, the “residual percentage in human plasma” value in series [2] was found to be 91%. The inhibition at 1 µM in the series with human PBMCs (setting [3]) was 21%; in the series on human PBMCs (setting [4]) it was 22.9%; with human PBMCs (setting [5]), 33.9%.

Take `O=C(NO)c1ccc(Cn2nnc(-c3ccc(C(F)(F)F)cc3)n2)cc1` [comp. 23, 4-[[5-[4-(trifluoromethyl)phenyl]tetrazol-2-yl]methyl]benzenecarbohydroxamic acid]: the IC50 on HDAC10 is 1100 nM; at HDAC2, 2030 nM; against HDAC7, 6670 nM; on HDAC9, 2690 nM.

In the case of `Nn1c(Sc2ccc(C(=O)NO)cc2)nnc1-c1ccc(OC(F)F)cc1` [comp. 28, 4-[[4-amino-5-[4-(difluoromethoxy)phenyl]-1,2,4-triazol-3-yl]sulfanyl]benzenecarbohydroxamic acid], the IC50 on HDAC10 was 636 nM; against HDAC2, 1570 nM; on HDAC7, 1030 nM; against HDAC9 it was 328 nM.

For the molecule `O=C(NO)c1ccc(Cn2nnc(-c3ccccc3F)n2)cc1` [comp. 33, 4-[[5-(2-fluorophenyl)tetrazol-2-yl]methyl]benzenecarbohydroxamic acid], the IC50 was determined as 441 nM against HDAC10, 810 nM on HDAC2, 608 nM on HDAC7 and 948 nM against HDAC9.

Regarding `O=C(NO)c1ccc(Cn2nnc(-c3cccs3)n2)cc1` [comp. 50, 4-[[5-(2-thienyl)tetrazol-2-yl]methyl]benzenecarbohydroxamic acid], the IC50 against HDAC10 was found to be 398 nM; against HDAC2 it was 958 nM; against HDAC7, 611 nM; against HDAC9 it was 800 nM.

For `O=C(NO)c1ccc(Cc2nnc(-c3ccc(F)cc3F)o2)cc1` [comp. 58, 4-((5-(2,4-difluorophenyl)-1,3,4-oxadiazol-2-yl)methyl)-N-hydroxybenzamide], the IC50 came to 591 nM against HDAC10, 1750 nM on HDAC2, 1510 nM against HDAC7 and 2170 nM on HDAC9.

Take `O=C(NO)c1cc(F)c(Cn2nnnc2-c2ncccn2)c(F)c1` [comp. 125, 3,5-difluoro-4-[(5-pyrimidin-2-yltetrazol-1-yl)methyl]benzenecarbohydroxamic acid]: the IC50 in series [1] is above 10 µM. The “residual percentage in human plasma” value in series [2] is on record as 77%.

With `Cn1c(Sc2c(F)cc(C(=O)NO)cc2F)nnc1-c1cccc(CN2CCCCCC2)c1` [comp. 167, 4-[[5-[3-(azepan-1-ylmethyl)phenyl]-4-methyl-1,2,4-triazol-3-yl]sulfanyl]-3,5-difluoro-benzenecarbohydroxamic acid], the IC50 in series [1] came out at 43 µM. Besides, the “residual percentage in human plasma” value in series [2] is listed as 91%.

With `Cn1c(Sc2c(F)cc(C(=O)NO)cc2F)nnc1-c1ccc(CN2CCCCCC2)cc1` [comp. 168, 4-[[5-[4-(azepan-1-ylmethyl)phenyl]-4-methyl-1,2,4-triazol-3-yl]sulfanyl]-3,5-difluoro-benzenecarbohydroxamic acid], in series [1], the IC50 was 36.9 µM.

Turning to `Nc1ccc(-c2nnn(Cc3c(F)cc(C(=O)NO)cc3F)n2)cc1` [comp. 171, 4-[[5-(4-aminophenyl)tetrazol-2-yl]methyl]-3,5-difluoro-benzenecarbohydroxamic acid], the IC50 in series [1] amounted to 6.14 µM. Besides, in series [2], the “residual percentage in human plasma” value was found to be 88%.

For the molecule `Cn1c(Sc2c(F)cc(C(=O)NO)cc2F)nnc1-c1cccnn1` [comp. 179, 3,5-difluoro-4-[(4-methyl-5-pyridazin-3-yl-1,2,4-triazol-3-yl)sulfanyl]benzenecarbohydroxamic acid], in series [1], the IC50 was found to be 50.3 µM. Further, the “residual percentage in human plasma” value in series [2] stood at 100%.

Consider `Cn1c(Sc2c(F)cc(C(=O)NO)cc2F)nnc1-c1ncccc1F` [comp. 180, 3,5-difluoro-4-[[5-(3-fluoro-2-pyridyl)-4-methyl-1,2,4-triazol-3-yl]sulfanyl]benzenecarbohydroxamic acid], for which the IC50 in series [1] amounted to 40.2 µM. For the same molecule, the “residual percentage in human plasma” value in series [2] is on record as 97%.

With `O=C(NO)c1cc(F)c(Cc2nnc(-c3ccncc3)s2)c(F)c1` [compound 195, 3,5-difluoro-4-[[5-(4-pyridyl)-1,3,4-thiadiazol-2-yl]methyl]benzenecarbohydroxamic acid], in series [1], the IC50 was 3.12 µM. Moreover, the “residual percentage in human plasma” value in series [2] is listed as 93%.
